{
  "source": "paper PMC10669220",
  "about": "“In Vitro α-Glucosidase and α-Amylase Inhibition, Cytotoxicity and Free Radical Scavenging Profiling of the 6-Halogeno and Mixed 6,8-Dihalogenated 2-Aryl-4-methyl-1,2-dihydroquinazoline 3-Oxides” (Antioxidants, 2023)",
  "key": {"[1]": {"test": "DPPH radical scavenging assay", "conditions": "mean ± SD; 45 min in the dark; 512 nm", "outline": "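Compounds (0–50 µM, in DMSO) were mixed with 0.20 mM DPPH in methanol and kept in the dark for 45 min, with absorbance read at 512 nm. IC50 values were obtained by nonlinear regression of triplicate averaged readings.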"}, "[2]": {"test": "NO free radical scavenging assay (sodium nitroprusside/Griess)", "conditions": "mean ± SD; sodium nitroprusside, Griess reagent, 550 nm", "outline": "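Test compound incubated with 10 mM sodium nitroprusside (stock) in phosphate buffer for 2.5 h at 25 °C, then Griess reagent added for 30 min. Triplicate absorbance means used for IC50 by nonlinear dose–response regression.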"}, "[3]": {"target": "superoxide dismutase (SOD)", "test": "Superoxide dismutase (SOD) inhibitory assay (SOD assay kit-WST)", "type": "biochemical", "conditions": "duplicate; 1-50 µM; 25 °C, 30 min; read-out: IC50 SOD inhibition", "protocol": "The antioxidant activity of the compounds 3a, 3c, 3f, 3i, 3l, 3n and 3p against superoxide radicals was assessed via enzymatic assay in vitro using the SOD assay kit-WST according to the manufacturer’s instructions (Sigma-Aldrich®). The reaction mixtures in the SOD kit were combined with 20 μL of working solution of the samples in a 96-well plate. Plates were gently shaken and then incubated at 25 °C for 30 min. The reference positive control, diphenyleneiodonium (DPI), and the compounds were tested at 01, 5, 10, 25 and 50 µM in duplicates. The inhibition activity of SOD on the reaction of […] generated the superoxide with a tetrazolium salt, which was then determined by measuring the absorbance of the mixtures at a wavelength of 450 nm using an Elisa plate reader (Varioskan Flash, ThermoFisher Scientific, Vantaa, Finland). The SOD activity values obtained used to calculate the percentage of inhibition. % SOD activity=ODx− ODy/ODx ×100% where ODx is the absorbance of the blank (untreated SOD) and ODy is the absorbance of the sample (treated SOD). All tests were performed in duplicate."}, "[4]": {"test_system": "lung cancer (A549) cell line", "test": "MTT cytotoxicity assay, A549", "conditions": "for Cell viability percentage, A549: Table S3"}},
  "data": [
    {"molecule": "CC1=[N+]([O-])C(c2ccccc2)Nc2c(I)cc(Br)cc21", "note": "(stereo not drawn) [Compound 3i]", "values": [
      {"measurement": "IC50", "setting": "[1]", "result": "1.04 ± 0.077", "unit": "µM"},
      {"measurement": "IC50", "setting": "[2]", "result": "61.26 ± 0.005", "unit": "µM"},
      {"measurement": "IC50", "setting": "[3]", "result": "15 ± 0.14", "unit": "µM"},
      {"measurement": "Cell viability percentage, A549", "setting": "[4]; Conc. 1 (µM per method)", "result": "84,0927%"},
      {"measurement": "Cell viability percentage, A549", "setting": "[4]; Conc. 5 (µM per method)", "result": "69,8954%"},
      {"measurement": "Cell viability percentage, A549", "setting": "[4]; Conc. 10 (µM per method)", "result": "61,098%"},
      {"measurement": "Cell viability percentage, A549", "setting": "[4]; Conc. 25 (µM per method)", "result": "43,9195%"},
      {"measurement": "Cell viability percentage, A549", "setting": "[4]; Conc. 50 (µM per method)", "result": "23,0847%"},
      {"measurement": "IC50", "setting": "[4]; Homo sapiens, A549, read-out: IC50 A549", "result": "16.85 ± 0.05", "unit": "µM"}
    ]}
  ]
}
